Laboratory results taken from patent US11208411B2, “Compositions and methods for treating parasitic diseases” (THE REGENTS OF THE UNIVERSITY OF CALIFORNIA, priority 2016, dated 2021).
Where two headings read alike, the source gives them in different places.

Legend:
Src = Src (Homo sapiens (Human), UniProt P12931); experiment: Src kinase inhibition; type: biochemical; parameters: Src % Inhibition: concentration or dose not given beside the values
[1] = test system: T. gondii type I RH strain, 2F clone; experiment: Inhibition of parasite growth in vitro in HFF monolayers (beta-Gal readout); type: cell-based
[2] = Stability in rat liver microsomes; type: in vitro ADME; details: 1 mM NADPH, read-out: Microsome Half-Life
TgCDPK1 = TgCDPK1 (Toxoplasma gondii, UniProt Q9BJF5); experiment: TgCDPK1 kinase assay, syntide-2 peptide-based ELISA; type: biochemical
Sequence of TgCDPK1 (Q9BJF5 1-507): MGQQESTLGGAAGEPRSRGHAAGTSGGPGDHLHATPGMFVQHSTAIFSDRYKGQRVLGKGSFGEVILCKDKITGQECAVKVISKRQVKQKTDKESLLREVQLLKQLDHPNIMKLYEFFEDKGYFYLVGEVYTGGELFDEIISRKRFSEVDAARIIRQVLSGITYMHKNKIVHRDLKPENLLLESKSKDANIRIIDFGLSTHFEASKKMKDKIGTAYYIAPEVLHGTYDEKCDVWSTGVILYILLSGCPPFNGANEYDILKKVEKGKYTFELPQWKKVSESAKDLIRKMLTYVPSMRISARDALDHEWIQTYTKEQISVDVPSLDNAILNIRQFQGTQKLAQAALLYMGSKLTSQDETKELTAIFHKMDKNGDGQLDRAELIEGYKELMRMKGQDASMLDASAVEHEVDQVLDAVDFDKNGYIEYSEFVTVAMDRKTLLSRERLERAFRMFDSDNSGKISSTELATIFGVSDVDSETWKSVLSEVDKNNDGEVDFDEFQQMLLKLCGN

In vivo pharmacokinetics = details: iv, 3 mg/kg
[3] = Toxoplasma gondii, 72 h; read-out: Parasite Growth EC50

Sequence of Src (P12931 whole entry, looked up): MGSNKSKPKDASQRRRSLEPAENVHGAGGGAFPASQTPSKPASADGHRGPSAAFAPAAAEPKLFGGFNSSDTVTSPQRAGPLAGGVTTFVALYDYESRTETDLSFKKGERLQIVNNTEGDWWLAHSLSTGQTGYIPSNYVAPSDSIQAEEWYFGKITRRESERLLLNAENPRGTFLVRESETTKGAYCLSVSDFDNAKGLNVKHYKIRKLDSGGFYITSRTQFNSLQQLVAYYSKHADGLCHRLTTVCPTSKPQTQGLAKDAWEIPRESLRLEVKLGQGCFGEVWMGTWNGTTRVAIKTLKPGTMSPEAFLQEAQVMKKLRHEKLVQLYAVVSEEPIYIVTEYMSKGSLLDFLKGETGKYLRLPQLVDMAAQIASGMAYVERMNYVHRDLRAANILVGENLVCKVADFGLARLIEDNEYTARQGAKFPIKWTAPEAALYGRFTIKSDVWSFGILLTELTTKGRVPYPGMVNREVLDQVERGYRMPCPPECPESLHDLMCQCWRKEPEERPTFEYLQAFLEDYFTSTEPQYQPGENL

| Structure (SMILES) | Src % Inhibition (Src) [%] | other results |
| --- | --- | --- |
| Cc1cccc(Sc2nn(CC3CCNCC3)c3ncnc(N)c23)c1 [FUR7-77, 1-(piperidin-4-ylmethyl)-3-(m-tolylthio)-1H-pyrazolo[3,4-d]pyrimidin-4-amine] | 80.21 |  |
| Nc1ncnc2c1c(Oc1cccc(Cl)c1)nn2CC1CCNCC1 [GXJ237, 3-(3-chlorophenoxy)-1-(piperidin-4-ylmethyl)-1H-pyrazolo[3,4-d]pyrimidin-4-amine] | 87.87 |  |
| Nc1ncnc2c1c(Cc1c[nH]c3ccccc13)nn2CC1(C(F)(F)F)CC1 [WXT-2, 3-((1H-indol-3-yl)methyl)-1-((1-(trifluoromethyl)cyclopropyl)methyl)-1H-pyrazolo[3,4-d]pyrimidin-4-amine] | 96.00 | IC50 (Src): > 10000 nM; EC50 ([1]; Toxoplasma gondii, 72 h, read-out: Parasite Growth EC50): 206 nM; half-life [2]: 4.7 min; IC50 (TgCDPK1): 38.1 nM |
| Nc1ncnc2c1c(Oc1cccc(Cl)c1)nn2CC1CCCNC1 (stereo not shown) [FUR6-11, 3-(3-chlorophenoxy)-1-(piperidin-3-ylmethyl)-1H-pyrazolo[3,4-d]pyrimidin-4-amine] | 90.05 |  |
| Nc1ncnc2c1c(Oc1cccc(Cl)c1)nn2CC1CNC1 [FUR6-12, 1-(azetidin-3-ylmethyl)-3-(3-chlorophenoxy)-1H-pyrazolo[3,4-d]pyrimidin-4-amine] | 91.81 |  |
| Nc1ncnc2c1c(Oc1cccc(Cl)c1)nn2Cc1ccncc1 [FUR6-6, 3-(3-chlorophenoxy)-1-(pyridin-4-ylmethyl)-1H-pyrazolo[3,4-d]pyrimidin-4-amine] | 93.91 |  |
| COc1cccc(Oc2nn(C(C)(C)C)c3ncnc(N)c23)c1 [GXJ230, 1-(tert-butyl)-3-(3-methoxyphenoxy)-1H-pyrazolo[3,4-d]pyrimidin-4-amine] | 77.53 |  |
| Cc1cccc(Sc2nn(C(C)(C)C)c3ncnc(N)c23)c1 [FUR7-68, 1-(tert-butyl)-3-(m-tolylthio)-1H-pyrazolo[3,4-d]pyrimidin-4-amine] | 64.39 | IC50 (Src): > 10000 nM; EC50 [1, 3]: 376 nM; half-life [2]: 1 min; IC50 (TgCDPK1): 22.9 nM |
| Nc1ncnc2c1c(Sc1cccc(Cl)c1)nn2CC1CCNCC1 [FUR 5-56] | 102.82 |  |
| CC(C)(C)n1nc(Cc2c[nH]c3ccccc23)c2c(N)ncnc21 [LJQ-138, 3-((1H-indol-3-yl)methyl)-1-(tert-butyl)-1H-pyrazolo[3,4-d]pyrimidin-4-amine] | 74.94 | IC50 (Src): > 10000 nM; EC50 [1, 3]: 177 nM; half-life [2]: 2 min; IC50 (TgCDPK1): 12.3 nM |
| Nc1ncnc2c1c(Cc1cccc(Cl)c1)nn2CC1CCNCC1 [FUR6-157, 3-(3-chlorobenzyl)-1-(piperidin-4-ylmethyl)-1H-pyrazolo[3,4-d]pyrimidin-4-amine] | 87.11 |  |
| CC(C)(C)n1nc(Cc2coc3ccccc23)c2c(N)ncnc21 [LJQ-145, 3-(benzofuran-3-ylmethyl)-1-(tert-butyl)-1H-pyrazolo[3,4-d]pyrimidin-4-amine] | 36.04 | EC50 [1, 3]: 2030 nM; half-life [2]: 1.7 min; IC50 (TgCDPK1): 23.7 nM |
| Cc1cccc(Oc2nn(C(C)(C)C)c3ncnc(N)c23)c1 [GXJ176, 1-(tert-butyl)-3-(m-tolyloxy)-1H-pyrazolo[3,4-d]pyrimidin-4-amine] | 84.24 |  |
| Nc1ncnc2c1c(Sc1cccc(Cl)c1)nn2CC1CCNCC1(F)F (stereo not shown) [FUR 7-76] | 76.47 |  |
| Nc1ncnc2c1c(Oc1cccc(Cl)c1)nn2CC1CCOCC1 [FUR7-89, 3-(3-chlorophenoxy)-1-((tetrahydro-2H-pyran-4-yl)methyl)-1H-pyrazolo[3,4-d]pyrimidin-4-amine] | 77.33 |  |
| CC(C)(C)n1nc(Sc2cccc(Cl)c2)c2c(N)ncnc21 [GXJ186, 1-(tert-butyl)-3-((3-chlorophenyl)thio)-1H-pyrazolo[3,4-d]pyrimidin-4-amine] | 72.84 |  |
| CC(C)(C)n1nc(Sc2c[nH]c3ccccc23)c2c(N)ncnc21 [FUR6-159, 3-((1H-indol-3-yl)thio)-1-(tert-butyl)-1H-pyrazolo[3,4-d]pyrimidin-4-amine] | 97.66 | IC50 (Src): > 10000 nM; EC50 [1, 3]: > 10000 nM; half-life [2]: 2.6 min; IC50 (TgCDPK1): 202 nM |
| CC(C)(C)n1nc(Nc2cccc(Cl)c2)c2c(N)ncnc21 [LZH118, 1-(tert-butyl)-N^3-(3-chlorophenyl)-1H-pyrazolo[3,4-d]pyrimidine-3,4-diamine] | 21.86 |  |

| Structure (SMILES) | Src % Inhibition (Src) [%] | other results |
| --- | --- | --- |
| Nc1ncnc2c1c(Oc1cccc(Cl)c1)nn2CC1CCNC1 (stereo not shown) [FUR6-13, 3-(3-chlorophenoxy)-1-(pyrrolidin-3-ylmethyl)-H-pyrazolo[3,4-d]pyrimidin-4-amine] | 99.50 |  |
| CC(C)(C)n1nc(Cc2csc3ccccc23)c2c(N)ncnc21 [CZ43, 3-(benzo[b]thiophen-3-ylmethyl)-1-(tert-butyl)-1H-pyrazolo[3,4-d]pyrimidin-4-amine] | 28.21 | IC50 (Src): 14 nM; EC50 [1, 3]: 135 nM; half-life [2]: 2.5 min; IC50 (TgCDPK1): 7.45 nM |
| Nc1ncnc2c1c(Oc1cccc(Cl)c1)nn2CC1CCNCC1(F)F (stereo not shown) [FUR7-27, 3-(3-chlorophenoxy)-1-((3,3-difluoropiperidin-4-yl)methyl)-1H-pyrazolo[3,4-d]pyrimidin-4-amine] | 87.87 |  |
| Nc1ncnc2c1c(Sc1c[nH]c3ccccc13)nn2CC1CCNCC1 [FUR 5-57, 3-((1H-indol-3-yl)thio)-1-(piperidin-4-ylmethyl)-1H-pyrazolo[3,4-d]pyrimidin-4-amine] |  | half-life [2]: 12 min |
| Nc1ncnc2c1c(Oc1cccc(Cl)c1)nn2CC1CCNC(=O)C1 (stereo not shown) [FUR7-36, 4-((4-amino-3-(3-chlorophenoxy)-1H-pyrazolo[3,4-d]pyrimidin-1-yl)methyl)piperidin-2-one] | 96.13 |  |
| CC(C)(C)n1nc(Oc2cccc(Br)c2)c2c(N)ncnc21 [GXJ177, 3-(3-bromophenoxy)-1-(tert-butyl)-1H-pyrazolo[3,4-d]pyrimidin-4-amine] | 73.35 |  |
| CC(C)(C)n1nc(Oc2cccc(Cl)c2)c2c(N)ncnc21 [GXJ184, 1-(tert-butyl)-3-(3-chlorophenoxy)-1H-pyrazolo[3,4-d]pyrimidin-4-amine] | 79.94 | Co (initial conc.) (In vivo pharmacokinetics): 5471.09 ng/mL |
| Nc1ncnc2c1c(Sc1cccc(Cl)c1)cn2CC1CCNCC1 [FUR 6-139, 5-((3-chlorophenyl)thio)-7-(piperidin-4-ylmethyl)-7H-pyrrolo[2,3-d]pyrimidin-4-amine] | 97.49 |  |
| CC(C)(C)n1nc(Cc2cc(F)cc(F)c2)c2c(N)ncnc21 [CZ75, 1-(tert-butyl)-3-(3,5-difluorobenzyl)-1H-pyrazolo[3,4-d]pyrimidin-4-amine] | 91.31 |  |
| CC(C)(C)n1nc(Oc2cc(F)cc(F)c2)c2c(N)ncnc21 [GXJ229, 1-(tert-butyl)-3-(3,5-difluorophenoxy)-1H-pyrazolo[3,4-d]pyrimidin-4-amine] | 87.48 |  |
| Nc1ncnc2c1c(Cc1c[nH]c3ccccc13)nn2CC1CCNCC1 [FUR6-95, 3-((1H-indol-3-yl)methyl)-1-(piperidin-4-ylmethyl)-1H-pyrazolo[3,4-d]pyrimidin-4-amine] | 92.70 | IC50 (Src): > 10000 nM; EC50 [1, 3]: > 10000 nM; half-life [2]: > 60 min; IC50 (TgCDPK1): 23.9 nM |
| CC(C)(C)n1nc(Oc2cccc(C(F)(F)F)c2)c2c(N)ncnc21 [GXJ178, 1-(tert-butyl)-3-(3-(trifluoromethyl)phenoxy)-1H-pyrazolo[3,4-d]pyrimidin-4-amine] | 79.53 |  |
| CN1CCC(Cn2nc(Oc3cccc(Cl)c3)c3c(N)ncnc32)CC1 [FUR7-30, 3-(3-chlorophenoxy)-1-((1-methylpiperidin-4-yl)methyl)-1H-pyrazolo[3,4-d]pyrimidin-4-amine] | 96.94 |  |
| Nc1ncnc2c1c(Nc1cccc(Cl)c1)nn2CC1CCNCC1 [GXJ276, N^3-(3-chlorophenyl)-1-(piperidin-4-ylmethyl)-1H-pyrazolo[3,4-d]pyrimidine-3,4-diamine] | 24.50 |  |
| Nc1ncnc2c1c(Oc1ccc(F)c(Cl)c1)nn2CC1CCNCC1 [GXJ261, 3-(3-chloro-4-fluorophenoxy)-1-(piperidin-4-ylmethyl)-1H-pyrazolo[3,4-d]pyrimidin-4-amine] | 78.16 |  |
| Nc1ncnc2c1c(Oc1cccc(Cl)c1)nn2CC1(C(F)(F)F)CC1 [FUR7-2, 3-(3-chlorophenoxy)-1-((1-(trifluoromethyl)cyclopropyl)methyl)-1H-pyrazolo[3,4-d]pyrimidin-4-amine] | 91.63 |  |
| CC(C)(C)n1nc(Cc2cccc(Cl)c2)c2c(N)ncnc21 [Compound 3CIB-PP1, 1-(tert-butyl)-3-(3-chlorobenzyl)-1H-pyrazolo[3,4-d]pyrimidin-4-amine, reference compound] | 18.48 |  |
| Nc1ncnc2c1c(Cc1cc(F)cc(F)c1)nn2CC1CCNCC1 [MLC468, 3-(3,5-difluorobenzyl)-1-(piperidin-4-ylmethyl)-1H-pyrazolo[3,4-d]pyrimidin-4-amine] | 94.97 |  |
